# Measurements taken from patent US20100267561A1, “HERBICIDAL PYRIDAZINONE DERIVATIVES” (priority 2007, published 2010).
# Where two headings read alike, the source gives them in different places.
# Legend:
# Assay in all cases: Test B pre-/postemergence plant response
# Assay type in all cases: in vivo
# [1] = system: woolly cupgrass (Eriochloa villosa); details: for pest or weed control at 31 g/ha: 31 g ai/ha; for pest or weed control at 62 g/ha: 62 g ai/ha, 100 complete control
# Excerpt: (§1) Seeds of plant species selected from blackgrass (Alopecurus myosuroides), downy bromegrass (Bromus tectorum), green foxtail (Setaria viridis), Italian ryegrass (Lolium multiflorum), wheat (Triticum aestivum), wild oat (Avena fatua), catchweed bedstraw (Galium aparine), bermudagrass (Cynodon dactylon), surinam grass (Brachiaria decumbens), cocklebur (Xanthium strumarium), corn (Zea mays), large crabgrass (Digitaria sanguinalis), woolly cupgrass (Eriochloa villosa), giant foxtail (Setaria faberii), goosegrass (Eleusine indica), johnsongrass (Sorghum halepense), kochia (Kochia scoparia), lambsquarters (Chenopodium album), morningglory (Ipomoea coccinea), eastern black (E.B.) nightshade (Solanum ptycanthum), yellow nutsedge (Cyperus esculentus), pigweed (Amaranthus retroflexus), common ragweed (Ambrosia elation), Russian thistle (Salsola iberica), soybean (Glycine max), common (oilseed) sunflower (Helianthus annuus), and velvetleaf (Abutilon theophrasti) were planted and treated preemergence with test chemicals formulated in a non-phytotoxic solvent mixture which included a surfactant.
# (§2) At the same time, plants selected from these crop and weed species and also winter barley (Hordeum vulgare), canarygrass (Phalaris minor), chickweed (Stellaria media) and windgrass (Apera spica-venti) were treated with postemergence applications of some of the test chemicals formulated in the same manner. Plants ranged in height from 2 to 18 cm (1- to 4-leaf stage) for postemergence treatments.
# (§3) Plant species in the flooded paddy test consisted of rice (Oryza sativa), umbrella sedge (Cyperus difformis), ducksalad (Heteranthera limosa) and barnyardgrass (Echinochloa crus-galli) grown to the 2-leaf stage for testing. At time of treatment, test pots were flooded to 3 cm above the soil surface, treated by application of test compounds directly to the paddy water, and then maintained at that water depth for the duration of the test. Treated plants and controls were maintained in a greenhouse for 13 to 15 days, after which time all species were compared to controls and visually evaluated. Plant response ratings, summarized in Table B, are based on a scale of 0 to 100 where 0 is no effect and 100 is complete control. A dash (-) response means no test result.
# [2] = system: downy bromegrass (Bromus tectorum); details: for pest or weed control at 31 g/ha: 31 g ai/ha; for pest or weed control at 62 g/ha: 62 g ai/ha, 100 complete control
# Excerpt: as §1, §2, §3
# [3] = system: pigweed (Amaranthus retroflexus); details: for pest or weed control at 31 g/ha / pest or weed control at 62 g/ha: Amaranthus retroflexus, read-out: Plant response rating, Pigweed; for pest or weed control at 31 g/ha: 31 g ai/ha; for pest or weed control at 62 g/ha: 62 g ai/ha, 100 complete control
# Excerpt: as §1, §2, §3
# corn (Zea mays) = details: for Corn plant response rating (crop injury, 0 = no effect, 100 = complete kill) at 31 g/ha: 31 g ai/ha; for Corn plant response rating (crop injury, 0 = no effect, 100 = complete kill) at 62 g/ha: 62 g ai/ha, 100 complete control
# Excerpt: as §1, §2, §3
# [4] = system: common ragweed (Ambrosia elation); details: for pest or weed control at 31 g/ha / pest or weed control at 62 g/ha: Ambrosia, read-out: Plant response rating, Ragweed; for pest or weed control at 31 g/ha: 31 g ai/ha; for pest or weed control at 62 g/ha: 62 g ai/ha, 100 complete control
# Excerpt: as §1, §2, §3
# [5] = system: yellow nutsedge (Cyperus esculentus); details: for pest or weed control at 31 g/ha / pest or weed control at 62 g/ha: Cyperus, read-out: Plant response rating, Nutsedge, Yellow; for pest or weed control at 31 g/ha: 31 g ai/ha; for pest or weed control at 62 g/ha: 62 g ai/ha, 100 complete control
# Excerpt: as §1, §2, §3
# [6] = 8 g ai/ha, postemergence, 0-100 scale
# [7] = Preemergence, 8 g ai/ha, scale 0 to 100 (0 no effect, 100 complete control)
# [8] = Preemergence, 16 g ai/ha, scale 0 to 100
# [9] = 16 g ai/ha, postemergence, 0-100 scale
# [10] = post-emergence, Postemergence, scale 0 to 100
# [11] = post-emergence, Postemergence, scale 0 to 100, 0 no effect
# [12] = pre-emergence, Preemergence, scale 0 to 100 (0 no effect, 100 complete control)
# [13] = pre-emergence, Preemergence, 0 to 100 scale, 0 no effect
structure (smiles),measurement,setting,value
"Cc1nn(C)c(=O)c(-c2nc(-c3ccc(Cl)cc3)sc2C)c1O [Compound 79, 4-[2-(4-chlorophenyl)-5-methyl-4-thiazolyl]-5-hydroxy-2,6-dimethyl-3(2H)-pyridazinone]","Cupgrass, Woolly plant response rating",[1]; [6],60
same,pest or weed control at 16 g/ha,"[1]; Eriochloa villosa, post-emergence, Postemergence, 16 g ai/ha, scale 0 to 100, read-out: Plant response rating, Cupgrass, Woolly",65%
same,pest or weed control at 31 g/ha,"[1]; Eriochloa villosa, post-emergence, Postemergence, scale 0 to 100, read-out: Plant response rating, Cupgrass, Woolly",75%
same,pest or weed control at 62 g/ha,"[1]; Eriochloa villosa, post-emergence, Postemergence, scale 0 to 100, 0 no effect, read-out: Plant response rating, Cupgrass, Woolly",80%
same,pest or weed control at 31 g/ha,"[1]; Eriochloa villosa, pre-emergence, Preemergence, scale 0 to 100 (0 no effect, 100 complete control), read-out: Plant response rating, Cupgrass, Woolly",100%
same,pest or weed control at 62 g/ha,"[1]; Eriochloa villosa, pre-emergence, Preemergence, 0 to 100 scale, 0 no effect, read-out: Plant response rating, Cupgrass, Woolly",100%
same,"Cupgrass, Woolly plant response rating",[1]; [7],20
same,"Cupgrass, Woolly plant response rating",[1]; [8],65
same,"Bromegrass, Downy plant response rating",[2]; [6],0
same,pest or weed control at 16 g/ha,"[2]; Bromus tectorum, post-emergence, Postemergence, 16 g ai/ha, scale 0 to 100, read-out: Plant response rating, Bromegrass, Downy",0%
same,pest or weed control at 31 g/ha,"[2]; Bromus tectorum, post-emergence, Postemergence, scale 0 to 100, read-out: Plant response rating, Bromegrass, Downy",30%
same,pest or weed control at 62 g/ha,"[2]; Bromus tectorum, post-emergence, Postemergence, scale 0 to 100, 0 no effect, read-out: Plant response rating, Bromegrass, Downy",50%
same,pest or weed control at 31 g/ha,"[2]; Bromus tectorum, pre-emergence, Preemergence, scale 0 to 100 (0 no effect, 100 complete control), read-out: Plant response rating, Bromegrass, Downy",55%
same,pest or weed control at 62 g/ha,"[2]; Bromus tectorum, pre-emergence, Preemergence, 0 to 100 scale, 0 no effect, read-out: Plant response rating, Bromegrass, Downy",80%
same,"Bromegrass, Downy plant response rating",[2]; [7],0
same,"Bromegrass, Downy plant response rating",[2]; [8],0
same,Pigweed plant response rating,[3]; [6],0
same,Pigweed plant response rating,[3]; [9],0
same,pest or weed control at 31 g/ha,[3]; [10],0%
same,pest or weed control at 62 g/ha,[3]; [11],0%
same,pest or weed control at 31 g/ha,[3]; [12],0%
same,pest or weed control at 62 g/ha,[3]; [13],0%
same,Pigweed plant response rating,[3]; [7],0
same,Pigweed plant response rating,[3]; [8],0
same,Corn plant response rating,corn (Zea mays); [6],0
same,Corn plant response rating,corn (Zea mays); [7],0
same,Corn plant response rating,corn (Zea mays); [8],0
same,"Corn plant response rating (crop injury, 0 = no effect, 100 = complete kill) at 16 g/ha","corn (Zea mays); Zea mays, post-emergence, Postemergence, 16 g ai/ha, scale 0 to 100",0%
same,"Corn plant response rating (crop injury, 0 = no effect, 100 = complete kill) at 31 g/ha","corn (Zea mays); Zea mays, post-emergence, Postemergence, scale 0 to 100",20%
same,"Corn plant response rating (crop injury, 0 = no effect, 100 = complete kill) at 62 g/ha","corn (Zea mays); Zea mays, post-emergence, Postemergence, scale 0 to 100, 0 no effect",35%
same,"Corn plant response rating (crop injury, 0 = no effect, 100 = complete kill) at 31 g/ha","corn (Zea mays); Zea mays, pre-emergence, Preemergence, scale 0 to 100 (0 no effect, 100 complete control)",50%
same,"Corn plant response rating (crop injury, 0 = no effect, 100 = complete kill) at 62 g/ha","corn (Zea mays); Zea mays, pre-emergence, Preemergence, 0 to 100 scale, 0 no effect",100%
same,Ragweed plant response rating,[4]; [6],0
same,Ragweed plant response rating,[4]; [9],0
same,pest or weed control at 31 g/ha,[4]; [10],0%
same,pest or weed control at 62 g/ha,[4]; [11],0%
same,pest or weed control at 31 g/ha,[4]; [12],0%
same,pest or weed control at 62 g/ha,[4]; [13],0%
same,Ragweed plant response rating,[4]; [7],0
same,Ragweed plant response rating,[4]; [8],0
same,"Nutsedge, Yellow plant response rating",[5]; [6],0
same,"Nutsedge, Yellow plant response rating",[5]; [9],0
same,pest or weed control at 31 g/ha,[5]; [10],0%
same,pest or weed control at 62 g/ha,[5]; [11],0%
same,pest or weed control at 31 g/ha,[5]; [12],0%
same,pest or weed control at 62 g/ha,[5]; [13],0%
same,"Nutsedge, Yellow plant response rating",[5]; [7],0
same,"Nutsedge, Yellow plant response rating",[5]; [8],0
